Results: publication PMC7576608, “Mechanisms of telomerase inhibition by oxidized and therapeutic dNTPs” (Nature Communications, 2020)
“And” between values parts separate entries of the source, which are not always exact repeats. Identical values can stand only once. Like-named read-outs stand apart in the source and are kept apart here.

Target: telomerase (Homo sapiens, UniProt O14746)
Experiment: Telomerase repeat processivity IC50: modified dNTP titrated into reactions with all four natural dNTPs
Format: biochemical
Design: made in house; anti-FLAG immunopurification, eluted with 3xFLAG peptide
Conditions: for LogIC50 (processivity): concentration in μM
Text: In order to better understand the ability of modified dNTPs to compete with natural dNTPs for telomerase utilization, we added modified dNTPs to reactions containing all four natural dNTPs. […] The calculated IC50 determines the concentration required to reduce repeat processivity in the bulk reactions by half. However, it is important to note that bulk experiments cannot distinguish effects on individual telomeres, since extended telomeres mask unextended telomeres. Incorporation of a chain terminator during any step will terminate extension of the affected telomere, and just five critically short telomeres are sufficient to trigger senescence. Therefore, repeat processivity IC50 values are not necessarily an indicator of the inhibitory potency, but provide information on selectivity for modified dNTPs compared to natural dNTPs. […] The ability to purify sufficient quantities of tcTERT enables characterization of the catalytic nucleotide addition by pre-steady-state single turnover kinetics using a defined DNA–RNA primer–template substrate. The catalytic efficiency of incorporating a single dNTP is measured by dividing the observed nucleotide incorporation rate constant, kpol, by the equilibrium dissociation constant for dNTP binding to the tcTERT–primer–template complex (Kd)[44].
The reactions were started by the addition of 3 μl of immunopurified telomerase eluent, incubated at 37 °C for 1 h, then terminated with 2 μl of […] and heat inactivated at 65 °C for 20 min. An equal volume of loading buffer (94% formamide, 0.1× TBE, 0.1% bromophenol blue, 0.1% xylene cyanol) was added to the reaction eluent. The samples were heat denatured for 10 min at 100 °C and loaded onto a 14% denaturing acrylamide gel (7 M urea, 1× TBE) and electrophoresed for 90 min at constant 38 W. Samples were imaged using a Typhoon phosphorimager (GE Healthcare). Percent primer extension was calculated with ImageQuant TL 8.2 by measuring the intensity of each product band and dividing by the total radioactivity in the lane or total products, as indicated in the figure legends.
The processivity was calculated as described[40],[67]. Repeat processivity from the direct telomerase extension assays was calculated as R1/2 (equivalent to the half-time for decay in an exponential time course), which represents the median length of DNA product formed, expressed in terms of number of telomere repeats. First, the total volume counts for each product band extend by one or more telomere repeats were obtained using Image Quant TL. The volume counts were then normalized by dividing by the number of radiolabeled guanosines incorporated into the extended products based on the number of repeats added, termed corrected volume (corr vol). The “percent left behind” (%LB) was calculated for each product band by summing the counts for that product band and for every product band below (shorter products), divided by the total counts for the lane, and then multiplied by 100. The natural log of (100−%LB) was calculated and then plotted vs. repeat number for each product length. A linear regression line was fit to the data to determine the slope of the line. The R1/2 value was calculated by dividing −ln(2) by the slope of each fitted line (R1/2 = −ln(2)/slope).
Supplementary Fig 8. IC50 values for telomerase processivity inhibition. Telomerase reactions were conducted with cellular relevant concentrations of all four natural dNTPs and increasing concentrations of the modified dNTP analog from 0 to 10,000 μM to calculate. (a) The natural log of (100-%LB) was plotted vs repeat number. A straight line was fit to the data and the R1/2 value was calculated by dividing –ln(2) by the slope of each line. Plots shown from one experiment are […]

[1] = cellular relevant natural dNTPs, modified dNTP titrated 0 to 10,000 μM, based on repeat processivity, mean ± SD, read-out: Telomerase processivity IC50
[2] = log of processivity IC50 (concentration in μM), Supplementary Fig 8b, read-out: Log IC50 (converted)
[3] = 6-thio-dGTP, per replicate N1-N3

telomerase, sequence (O14746 whole entry): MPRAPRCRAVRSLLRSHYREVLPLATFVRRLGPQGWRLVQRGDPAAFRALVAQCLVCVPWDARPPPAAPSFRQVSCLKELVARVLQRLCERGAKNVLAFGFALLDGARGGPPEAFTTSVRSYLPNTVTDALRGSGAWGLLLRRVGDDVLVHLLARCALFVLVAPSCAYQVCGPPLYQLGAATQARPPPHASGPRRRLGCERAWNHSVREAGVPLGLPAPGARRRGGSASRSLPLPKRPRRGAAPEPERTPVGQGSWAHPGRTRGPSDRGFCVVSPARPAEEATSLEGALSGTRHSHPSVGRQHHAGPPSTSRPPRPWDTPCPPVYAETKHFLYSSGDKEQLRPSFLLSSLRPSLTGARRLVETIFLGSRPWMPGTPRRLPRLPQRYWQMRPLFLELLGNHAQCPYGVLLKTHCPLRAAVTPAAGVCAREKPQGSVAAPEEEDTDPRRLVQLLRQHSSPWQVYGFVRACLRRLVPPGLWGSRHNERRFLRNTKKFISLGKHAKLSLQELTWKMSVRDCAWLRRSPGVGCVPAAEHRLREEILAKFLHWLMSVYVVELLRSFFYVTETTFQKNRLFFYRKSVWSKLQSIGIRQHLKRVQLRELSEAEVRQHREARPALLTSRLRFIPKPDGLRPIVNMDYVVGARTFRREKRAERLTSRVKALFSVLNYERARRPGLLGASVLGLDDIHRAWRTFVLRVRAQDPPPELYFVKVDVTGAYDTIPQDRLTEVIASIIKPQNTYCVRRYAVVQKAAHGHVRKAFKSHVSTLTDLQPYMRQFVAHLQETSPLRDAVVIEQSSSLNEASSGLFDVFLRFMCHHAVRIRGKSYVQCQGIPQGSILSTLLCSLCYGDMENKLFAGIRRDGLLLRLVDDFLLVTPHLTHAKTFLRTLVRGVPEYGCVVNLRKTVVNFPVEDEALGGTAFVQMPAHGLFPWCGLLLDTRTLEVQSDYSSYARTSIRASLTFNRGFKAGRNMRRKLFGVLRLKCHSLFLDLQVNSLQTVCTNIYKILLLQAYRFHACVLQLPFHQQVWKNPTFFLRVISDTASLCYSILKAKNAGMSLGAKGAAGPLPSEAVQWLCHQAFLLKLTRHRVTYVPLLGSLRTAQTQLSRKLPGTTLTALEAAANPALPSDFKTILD

With `Nc1nc(O)nc2c1ncn2C1CC(O)C(COP(=O)(O)OP(=O)(O)OP(=O)(O)O)O1` (stereo not drawn) [2-OH-dATP] the “YIntercept (line fit of ln(100-%LB) vs # telomere repeats)” value (2-OH-dATP 31μM) was 3.86 and 4.26 and 3.87, the “ln(100-%LB)” value (2-OH-dATP 31μM, telomere repeat 1) was 3.80 and 4.29 and 3.78 and the “ln(100-%LB)” value (2-OH-dATP 31μM, telomere repeat 2) was 3.30 and 3.65 and 3.08. The “ln(100-%LB)” value (2-OH-dATP 31μM, telomere repeat 3) was 2.75 and 3.04 and 2.41, the “ln(100-%LB)” value (2-OH-dATP 31μM, telomere repeat 4) was 2.47 and 2.74 and 2.04 and the “ln(100-%LB)” value (2-OH-dATP 31μM, telomere repeat 5) was 2.09 and 2.42 and 1.67. For the same compound, the “ln(100-%LB)” value (2-OH-dATP 31μM, telomere repeat 6) was 1.74 and 2.03 and 1.15, the “Processivity R 1/2” value (2-OH-dATP 31.25 μM) was 2.08 and 3.03 and 1.6 and the “Processivity R 1/2” value (2-OH-dATP 62.5 μM) was 1.82 and 1.19 and 1.25. For the same compound, the “Processivity R 1/2” value (2-OH-dATP 250μM) was 0.71 and 1.05 and 0.94, the “YIntercept (line fit of ln(100-%LB) vs # telomere repeats)” value (2-OH-dATP 250μM) was 4.34 and 4.78 and 4.14 and the “ln(100-%LB)” value (2-OH-dATP 250μM, telomere repeat 1) was 3.46 and 4.32 and 3.82. For the same compound, the “ln(100-%LB)” value (2-OH-dATP 250μM, telomere repeat 2) was 2.39 and 3.46 and 2.75, the “Processivity R 1/2” value (2-OH-dATP 500μM) was 0.82 and 0.52 and 1.02 and the “YIntercept (line fit of ln(100-%LB) vs # telomere repeats)” value (2-OH-dATP 500μM) was 3.92 and 4.75 and 4.04. The “ln(100-%LB)” value (2-OH-dATP 500μM, telomere repeat 1) was 3.41 and 4.41 and 3.82, the “ln(100-%LB)” value (2-OH-dATP 500μM, telomere repeat 2) was 2.30 and 3.46 and 2.66 and the “YIntercept (line fit of ln(100-%LB) vs # telomere repeats)” value (2-OH-dATP 750μM) was 4.21 and 5.17 and 4.34. For the same compound, the “ln(100-%LB)” value (2-OH-dATP 750μM, telomere repeat 1) was 2.99 and 4.03 and 3.90, the “YIntercept (line fit of ln(100-%LB) vs # telomere repeats)” value (2-OH-dATP 1000μM) was 4.31 and 5.20 and 4.71 and the “ln(100-%LB)” value (2-OH-dATP 1000μM, telomere repeat 1) was 2.98 and 4.07 and 3.49. For the same compound, the “ln(100-%LB)” value (2-OH-dATP 1500μM, telomere repeat 2) was 0.48, the “Processivity R 1/2” value (2-OH-dATP 2000 μM) was 0 and the IC50 (2-OH-dATP, mean of N1-N3, SD 66.28, read-out: Mean IC50 (processivity R 1/2)) was 103 µM. The “Bottom (best-fit, processivity R 1/2 vs log concentration)” value (2-OH-dATP, per replicate N1-N3) was 0.09 and -0.00587 and 0.62, the “HillSlope (processivity)” value (2-OH-dATP, per replicate N1-N3) was -1.28 and -0.83 and -0.032 and the “Span (best-fit, processivity R 1/2 vs log concentration)” value (2-OH-dATP, per replicate N1-N3) was 2.29 and 2.84 and 1.84. The “Top (best-fit, processivity R 1/2 vs log concentration)” value (2-OH-dATP, per replicate N1-N3) was 2.38 and 2.84 and 2.47, the “LogIC50 (processivity)” value (2-OH-dATP, per replicate N1-N3) was 2.24 and 1.99 and 1.60 and the IC50 (2-OH-dATP, per replicate N1-N3, read-out: IC50 (processivity R 1/2)) was 172 µM and 97 µM and 39.4 µM. The IC50 [1] was 103 ± 66 µM and the IC50 [2] was 126 µM.
With `Nc1nc2c(ncn2C2CC(O)C(COP(=O)(O)OP(=O)(O)OP(=O)(O)O)O2)c(=S)[nH]1` (stereo not drawn) [6-thio-dGTP] the “Processivity R 1/2” value (6-thio-dGTP 0.625μM) was 4.12 and 2.32 and 3.78, the “YIntercept (line fit of ln(100-%LB) vs # telomere repeats)” value (6-thio-dGTP 0.625μM) was 2.91 and 3.25 and 3.64 and the “ln(100-%LB)” value (6-thio-dGTP 0.625μM, telomere repeat 1) was 3.70 and 3.69 and 3.62. For the same compound, the “ln(100-%LB)” value (6-thio-dGTP 0.625μM, telomere repeat 2) was 3.11 and 3.16 and 3.05, the “ln(100-%LB)” value (6-thio-dGTP 0.625μM, telomere repeat 3) was 2.56 and 2.68 and 2.52 and the “ln(100-%LB)” value (6-thio-dGTP 0.625μM, telomere repeat 4) was 2.29 and 2.48 and 2.27. For the same compound, the “ln(100-%LB)” value (6-thio-dGTP 0.625μM, telomere repeat 5) was 2.03 and 2.29 and 2.05, the “ln(100-%LB)” value (6-thio-dGTP 0.625μM, telomere repeat 6) was 1.75 and 2.06 and 1.79 and the “ln(100-%LB)” value (6-thio-dGTP 0.625μM, telomere repeat 7) was 1.47 and 1.85 and 1.49. For the same compound, the “ln(100-%LB)” value (6-thio-dGTP 0.625μM, telomere repeat 8) was 1.23 and 1.67 and 1.26, the “ln(100-%LB)” value (6-thio-dGTP 0.625μM, telomere repeat 9) was 0.98 and 1.45 and 0.96 and the “ln(100-%LB)” value (6-thio-dGTP 0.625μM, telomere repeat 10) was 0.71 and 1.24 and 0.68. The “YIntercept (line fit of ln(100-%LB) vs # telomere repeats)” value (6-thio-dGTP 10μM) was 5.12 and 3.95 and 4.44, the “ln(100-%LB)” value (6-thio-dGTP 10μM, telomere repeat 1) was 3.39 and 3.57 and 3.48 and the “ln(100-%LB)” value (6-thio-dGTP 10μM, telomere repeat 2) was 1.78 and 2.70 and 1.99. For the same compound, the “ln(100-%LB)” value (6-thio-dGTP 10μM, telomere repeat 6) was 0.15, the “ln(100-%LB)” value (6-thio-dGTP 10μM, telomere repeat 7) was -0.27 and the “ln(100-%LB)” value (6-thio-dGTP 10μM, telomere repeat 8) was -0.68. For the same compound, the “ln(100-%LB)” value (6-thio-dGTP 10μM, telomere repeat 9) was -1.63, the IC50 (6-thio-dGTP, mean of N1-N3, SD 1.45, read-out: Mean IC50 (processivity R 1/2)) was 5.48 µM and the “Bottom (best-fit, processivity R 1/2 vs log concentration)” value [3] was 0.3229 and 0.05037 and -0.0895. The “HillSlope (processivity)” value [3] was -2.993 and -0.7699 and -0.9281, the “Span (best-fit, processivity R 1/2 vs log concentration)” value [3] was 3.504 and 3.529 and 1.482 and the “Top (best-fit, processivity R 1/2 vs log concentration)” value [3] was 3.827 and 3.579 and 1.393. The “LogIC50 (processivity)” value [3] was 0.8984 and 0.6519 and 0.682, the IC50 (6-thio-dGTP, per replicate N1-N3, read-out: IC50 (processivity R 1/2)) was 4.49 µM and 4.81 µM and the IC50 [1] was 5 ± 2 µM. The IC50 [2] was 5.01 µM.
